# Measured values published in PMC6238539, “Discovery of a cofactor-independent inhibitor of Mycobacterium tuberculosis InhA” (Life Science Alliance, 2018).
# Several values for one entry are separate records, joined by “and”; a condition that tells them apart may be missing. Identical values can stand only once. Like-named read-outs stand apart in the source and are kept apart here.
# Columns and labels:
# M. tuberculosis H37Rv = assay type: cell-based, Mycobacterium tuberculosis
# [1] = test system: M. tuberculosis inhA promoter and coding sequence mutants; assay type: cell-based, Mycobacterium tuberculosis; conditions: read-out: Liquid IC90
# [2] = test system: M. tuberculosis drug-resistant clinical isolates; test: microbe, parasite or virus in culture; assay type: cell-based; conditions: Mycobacterium tuberculosis
# [3] = test system: M. tuberculosis H37Rv-resistant mutants; assay type: cell-based, Mycobacterium tuberculosis; conditions: read-out: Liquid media IC90
# [4] = test system: M. tuberculosis inhA promoter and coding sequence mutants; conditions: cited from earlier work
# M. tuberculosis = conditions: cited from earlier work
# [5] = strains of Table 3, ref McNeil et al, 2017
structure (smiles),measurement,setting,value
N#Cc1ccc(Oc2ccc3c(c2)COB3O)c(/C=N/O)c1 [AN3438],frequency of resistance,M. tuberculosis H37Rv,6.5 × 10^−7
CCS(=O)(=O)N1N=Cc2ccc(Oc3ccc(C(F)(F)F)cc3/C=N/O)cc2B1O [AN12855],frequency of resistance,M. tuberculosis H37Rv,6.5 × 10^−7
same,IC90,[1],60 nM
same,MIC,"[2]; H37RV, read-out: MIC",0.13 µg/mL
same,MIC,[2]; read-out: MIC,0.25 µg/mL
"NNC(=O)c1ccncc1 [INH, isoniazid]",IC90,[3],300 nM and 100 nM and 400 nM
same,MIC,"[2]; H37RV, read-out: MIC",< 0.06 µg/mL
same,IC90,"[4]; strain H37Rv (WT), ref McNeil et al (2017), read-out: Liquid IC90",100 nM
same,Liquid IC90 (fold shift versus WT),"[4]; strain LP-0532543-RM1, InhA S94A, ref McNeil et al (2017)",2×
same,Liquid IC90 (fold shift versus WT),"[4]; strain LP-0532543-RM2, InhA D148E, ref McNeil et al (2017)",1×
same,Liquid IC90 (fold shift versus WT),"[4]; strain LP-0532543-RM3, InhA A206E, ref McNeil et al (2017)",1×
same,Liquid IC90 (fold shift versus WT),"[4]; strain LP-0532543-RM4, InhA M161L, ref McNeil et al (2017)",1×
same,Liquid IC90 (fold shift versus WT),"[4]; strain LP-0532543-RM6, InhA M103T, ref McNeil et al (2017)",1×
same,Liquid IC90 (fold shift versus WT),"[4]; strain LP-0532543-RM7, InhA G205A, ref McNeil et al (2017)",1×
same,Liquid IC90 (fold shift versus WT),"[4]; strain LP-0532543-RM9, InhA I202F, ref McNeil et al (2017)",1×
same,Liquid IC90 (fold shift versus WT),"[4]; strain LP-0532543-RM11, InhA G205S, ref McNeil et al (2017)",1×
same,Liquid IC90 (fold shift versus WT),"[4]; strain LP-0532543-RM13, InhA F41L, ref McNeil et al (2017)",1×
same,Liquid IC90 (fold shift versus WT),"[4]; strain LP-0532543-RM14, InhA G212D, ref McNeil et al (2017)",1×
same,Liquid IC90 (fold shift versus WT),"[4]; strain LP-0532543-RM16, InhA I215S, ref McNeil et al (2017)",1×
same,Liquid IC90 (fold shift versus WT),"[4]; strain LP-0532543-RM18, InhA S19W, ref McNeil et al (2017)",1×
same,Liquid IC90 (fold shift versus WT),"[4]; strain LP-0532543-RM19, InhA I47L, ref McNeil et al (2017)",1×
same,Liquid IC90 (fold shift versus WT),"[4]; strain LP-0532543-RM28, InhA I21M, ref McNeil et al (2017)",1×
same,Liquid IC90 (fold shift versus WT),"[4]; strain LP-0532543-RM30, fabG1inhA promoter c-15t, ref McNeil et al (2017)",5×
same,Liquid IC90 (fold shift versus WT),"[4]; strain LP-0532543-RM34, InhA I21V, ref McNeil et al (2017)",2×
same,Liquid IC90 (fold shift versus WT),"[4]; strain LP-0532543-RM37, InhA L269R, ref McNeil et al (2017)",1×
same,Liquid IC90 (fold shift versus WT),"[4]; strain LP-0532543-RM41, InhA R195G, ref McNeil et al (2017)",2×
same,Liquid IC90 (fold shift versus WT),"[4]; strain LP-0532543-RM301, promoter c-15t, InhA N159K, ref McNeil et al (2017)",3×
same,Liquid IC90 (fold shift versus WT),"[4]; strain LP-0532543-RM304, promoter c-15t, InhA T162M, ref McNeil et al (2017)",4×
same,Liquid IC90 (fold shift versus WT),"[4]; strain LP-0532543-RM311, promoter c-15t, InhA M161V, ref McNeil et al (2017)",5×
same,Liquid IC90 (fold shift versus WT),"[4]; strain LP-0532543-RM313, promoter c-15t, InhA G205D, ref McNeil et al (2017)",2×
same,Liquid IC90 (fold shift versus WT),"[4]; strain LP-0532543-RM314, promoter c-15t, InhA I47M, ref McNeil et al (2017)",5×
same,Liquid IC90 (fold shift versus WT),"[4]; strain LP-0532543-RM318, promoter c-15t, InhA M199L, ref McNeil et al (2017)",4×
same,Liquid IC90 (fold shift versus WT),"[4]; strain LP-0532543-RM320, promoter c-15t, InhA G208D, ref McNeil et al (2017)",4×
same,Liquid IC90 (fold shift versus WT),"[4]; strain LP-0571426-RM24, InhA I194T, ref McNeil et al (2017)",3×
same,frequency of resistance,M. tuberculosis,1 × 10^−5
CC1(C)CCC(Cc2cc(O)c(-c3ccccc3)c(=O)[nH]2)CC1 [NITD-916],resistance of inhA / fabG1inhA promoter mutant strains,[4]; [5],resistant
same,frequency of resistance,"M. tuberculosis; ref Manjunatha et al, 2015, Martínez-Hoyos et al, 2016",1 × 10^−8
"CO[C@H]1/C=C/O[C@@]2(C)Oc3c(C)c(O)c4c(O)c(c(/C=N/N5CCN(C)CC5)c(O)c4c3C2=O)NC(=O)/C(C)=C\C=C\[C@H](C)[C@H](O)[C@@H](C)[C@@H](O)[C@@H](C)[C@H](OC(C)=O)[C@@H]1C [RIF, rifampicin]",MIC,[2],> 16 µg/mL
same,MIC,[2]; H37RV,< 0.06 µg/mL
Oc1cc(Cl)ccc1Oc1ccc(Cl)cc1Cl [triclosan],cross-resistance of the mutants,[4]; [5],None of the mutants demonstrated cross-resistance
